In PubChem BioAssay (NCI):
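Step 1: Grow cells in 96-well plates. Step 2: Expose to compound for 48 hours at 5 concentrations. Step 3: Interpolate endpoints linearly; if unreached, use highest concentration. Definition used: TGI = concentration required for complete inhibition of growth.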

Tests used:
Experiment in all cases: NCI tumour cell line growth inhibition, 48 h
[1] = test system: A549 NSCLC
[2] = test system: HOP-92 NSCLC
[3] = test system: HS 578T breast
[4] = test system: HT29 colon
[5] = test system: NCI-H460 lung
[6] = test system: OVCAR-8 ovarian
[7] = test system: SF-268 CNS
[8] = test system: SF-295 CNS
[9] = test system: SF-539 CNS
[10] = test system: SK-MEL-2 melanoma

SMILES	TGI [1] [µM]	TGI [2] [µM]	TGI [3] [µM]	TGI [4] [µM]	TGI [5] [µM]	TGI [6] [µM]	TGI [7] [µM]	TGI [8] [µM]	TGI [9] [µM]	TGI [10] [µM]
CCN(CC)CCO/N=C1\CC[C@H]2[C@@H]3CCc4cc(OC)ccc4[C@H]3CC[C@]12C	6.96	7.25	7.36	2.07	2.15	7.95	7.05	3.78	3.92	5.07
COc1ccc(Oc2cnn(C(Br)(Br)C(C)=O)c(=O)c2Br)cc1	60.7	29.4	> 71.6	48.4	37.1	27	29	51.6	25.4	31.4
O=C1C2=Nc3ccccc3C(O)(C(=O)O)N2c2ccccc21 (stereo not given)	24.6	> 100	> 100	49.2	39.3	> 100	> 100	39.9	48.4	43.4
